We go through three compounds from US20240124456A1, “AZA-ERGOLINE DERIVATIVE AND PREPARATION METHOD THEREFOR AND APPLICATION THEREOF” (SHANGHAITECH UNIVERSITY, priority 2021, published 2024).

The target of series [1] is T1, 5-HT2A receptor (Homo sapiens (Human), UniProt P28223). Briefly: Radioligand competition binding, affinity for 5-HT2A receptor ([3H]-ketanserin). The method, then:
The affinity of the compounds of the present invention for the 5-HT2A receptors was determined by the method of radioligand competition experiment. In the first step, a cell membrane component containing specific 5-HT2A receptor was prepared. A 10 cm dish was used for transfection with 10 ng of the 5-HT2A receptor and 40 μL of PEI. […] A vacuum pump was used to suck off the culture medium, 3 mL of lysis buffer was added to each well, and the cells were placed in a 4° C. freezer for 10 minutes. After the cells were detached, the cells were transferred to a 15 mL centrifuge tube and centrifuged at 1500 rpm for 5 minutes at 4° C., and the supernatant was discarded. The cell pellet was transferred to a tissue homogenizer, and 3 mL of lysis buffer was added and fully ground until the cells were broken. Then, cell suspension was equally divided into several EP tubes, centrifuged at 4° C. and 12000 rpm for 5 min, and the supernatant was discarded. The precipitate was the cell membrane component containing the 5-HT2A receptor. […] First, a standard binding buffer was added to the cell membrane component containing the 5-HT2A receptor, and the cell membrane was disrupted and resuspended with an electric tissue homogenizer. 30 μL of membrane protein suspension was added to each well of a 96-well plate. Then, 30 μL of different drugs were added to the 96-well plate from left to right to ensure that the final drug concentrations were 10^−5 M, 10^−6 M, 10^−7 M, 10^−8 M, 10^−9 M and 0 M, with two replicates per treatment. Next, 30 μL [^3H]-ketanserin was added to each well of the 96-well plate. The plate was incubated for 2 hours at room temperature in the dark. Detection. The machine reading value reflected the amount of [^3H]-ketanserin bound on the membrane, and after further data processing, the affinity Ki value of different compounds for 5-HT2A receptor was obtained.

The target in series [2] is T2, dopamine D2 receptors (Homo sapiens (Human), UniProt P14416). Briefly: β-arrestin2 recruitment BRET, dopamine D2 receptor functional activity. It counts as cell-based. Background: Activated receptors often draw arrestin, which recruitment assays turn into a signal.
Series [3] has as its target T2, dopamine D2 receptors. Briefly: G protein Gαi1-γ9 dissociation BRET, dopamine D2 receptor functional activity. It counts as cell-based. (In general: Bioluminescence resonance energy transfer reports proximity on the nanometre scale.)
Series [4] addresses T2, dopamine D2 receptors. Put plainly: Radioligand competition binding, affinity for dopamine D2 receptors ([3H]-Methylspiperone). (Displacement assays read how much labelled ligand stays bound in the presence of the test substance.)
A further series relates to C57B6 male mice. Put plainly: Freezing behavior test. To be noted: 10 mg/kg. It counts as in vivo. The procedure: Experimental method: The experimental animals were C57B6 male mice, n=8 in each group. Mice were first injected with different compounds, and after a certain period of time (30 min or 60 min), the mice were in an upright and unnatural state by placing their forelimbs on a high glass hanging rod (about 5 cm from the ground). Then the time for the mice to maintain this state was measured, and the length of time was used to determine the freezing effect of the drug on the mice.

For series [5], the target named is T1, 5-HT2A receptor. Conditions: Blair, Drugs, 2020; cited from earlier work.

As usually defined, the Ki is the equilibrium dissociation constant of an inhibitor or competing ligand from its target. The low end stands for higher affinity, the high end for lower affinity. One may read the EC50 as the concentration at which the effect is half-maximal. Broadly, the Emax is the maximal effect, on the per cent scale that the assay sets.

T2 sequence (P14416 whole entry): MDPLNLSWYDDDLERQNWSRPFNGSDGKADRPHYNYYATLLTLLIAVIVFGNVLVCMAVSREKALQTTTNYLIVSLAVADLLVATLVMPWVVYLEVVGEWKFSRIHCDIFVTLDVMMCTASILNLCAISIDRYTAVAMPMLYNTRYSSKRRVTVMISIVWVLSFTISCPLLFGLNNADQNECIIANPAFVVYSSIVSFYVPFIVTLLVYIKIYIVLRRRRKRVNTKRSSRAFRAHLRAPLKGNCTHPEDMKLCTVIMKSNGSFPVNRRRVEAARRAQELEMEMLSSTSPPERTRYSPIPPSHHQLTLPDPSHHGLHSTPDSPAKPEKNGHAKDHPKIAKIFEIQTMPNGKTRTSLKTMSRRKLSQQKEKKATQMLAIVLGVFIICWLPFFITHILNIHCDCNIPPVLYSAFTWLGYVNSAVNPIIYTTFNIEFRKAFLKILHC
T1 sequence (P28223 whole entry): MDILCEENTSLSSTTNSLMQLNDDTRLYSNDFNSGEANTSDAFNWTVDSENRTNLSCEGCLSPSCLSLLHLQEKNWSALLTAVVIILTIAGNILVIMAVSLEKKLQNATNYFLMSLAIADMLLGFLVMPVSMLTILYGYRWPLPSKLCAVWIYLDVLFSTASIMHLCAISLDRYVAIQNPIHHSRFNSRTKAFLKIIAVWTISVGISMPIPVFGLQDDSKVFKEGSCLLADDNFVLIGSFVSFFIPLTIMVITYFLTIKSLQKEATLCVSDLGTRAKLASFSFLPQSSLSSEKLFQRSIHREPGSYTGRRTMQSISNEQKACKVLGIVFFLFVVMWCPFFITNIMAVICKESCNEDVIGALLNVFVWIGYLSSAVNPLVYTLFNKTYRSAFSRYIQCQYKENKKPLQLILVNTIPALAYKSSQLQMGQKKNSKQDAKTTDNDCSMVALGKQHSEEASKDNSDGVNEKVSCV

Take `CN(C)C(=O)N[C@H]1CC[C@H](CCN2CCN3c4cccc5[nH]cc(c45)CC3C2)CC1` (stereo partly drawn) [Compound I-10, 3-(4-(2-(4,6,6a,7,9,10-hexahydro-8H-pyrazino[1,2-a]pyrrolo[4,3,2-de]quinolin-8-yl)ethyl)trans-cyclohexyl)-1,1-dimethylurea]: the “affinity for 5-HT2A receptor (in words)” value at 5-HT2A receptor [1] is listed as “very weak affinity”. The Ki at 5-HT2A receptor [1] ([3H]-ketanserin, HEK-293T membranes) stood at 2370 nM; on dopamine D2 receptors [4], 50.6 nM. Further, the EC50 was determined as 6.61 nM on dopamine D2 receptors [2] (HEK-293T, I-1 to 19 n=3, I-20 to 27 single determination, read-out: β-arrestin2 BRET EC50) and 3.89 nM on dopamine D2 receptors [3] (HEK-293T, I-1 to 19 n=3, I-20 to 27 single determination, read-out: Gai1 BRET EC50). In addition, the maximal response (Emax) at dopamine D2 receptors [2] (read-out: β-arrestin2 BRET Emax % ± SEM) was 84%; at dopamine D2 receptors [3] (read-out: Gai1 BRET Emax % ± SEM) it was 80%. Besides, the “Affinity pKi ± SEM” value at dopamine D2 receptors [4] was “(7.30 ± 0.08)”.

For the compound `O=C(CCCN1CCC(O)(c2ccc(Cl)cc2)CC1)c1ccc(F)cc1` [Haloperidol, reference compound], the Freezing time in the series on C57B6 male mice (30 minutes after administration) came out at 61.05 ± 3.239 s; in the series on C57B6 male mice (60 minutes after administration), 53.19 ± 2.443 s.

With `CN1CCN2c3c(cccc31)[C@@H]1CN(CCCC(=O)c3ccc(F)cc3)CC[C@@H]12` [Lumateperone], the “affinity for 5-HT2A receptors relative to that for D2 receptors” value at 5-HT2A receptor [5] is “about 60 times”.
